Test results reported in paper PMC5151175 (Journal of medicinal chemistry, 2016).
“Also recorded” adds a separate entry of the source.

Experiments:
[1] = tested on: HIV-1/NL4-3; assay type: cell-based; conditions: for IC50 NL4-3: wild-type HIV-1/NL4-3 replication, mean ± SD of three separate experiments, NS = no selective anti-HIV activity (CC50/IC50 < 5)
[2] = in vitro metabolic; assay type: in vitro ADME; conditions: human, microsomes
[3] = tested on: NL4-3 infection of TZM-bl cells; assay: TZM-bl assay; assay type: cell-based, HIV-1; conditions: at 2 µM; average of two tests
[4] = tested on: NL4-3/V370A; assay type: cell-based, HIV-1; conditions: IC50(NL4-3/V370A)/IC50(NL4-3) ratio
[5] = tested on: NL4-3 Env-mediated cell–cell fusion; assay: fusion assay; assay type: cell-based, HIV-1; conditions: average of two independent tests
[6] = human, in vivo; cited from earlier work
[7] = tested on: HIV in MT-4 cells; conditions: cited from earlier work; for IC50: read-out: IC50, anti-HIV activity in MT-4 cells
[8] = tested on: HIV-1 integrase; conditions: cited from earlier work
[9] = tested on: HIV replication in MT-2 cell; conditions: read-out: IC50, HIV replication in MT-2 cells; cited from earlier work

O=C(/C=C/c1ccc2c(c1)OCO2)N1CCNCC1 [14c]
IC50 NL4-3 [1]: inactive

C=C(C)[C@@H]1CC[C@]2(C(=O)N3CCN(C(=O)/C=C/c4ccc5c(c4)OCO5)CC3)CC[C@]3(C)[C@H](CC[C@@H]4[C@@]5(C)CC[C@H](OC(=O)CC(C)(C)C(=O)O)C(C)(C)[C@@H]5CC[C@]43C)[C@@H]12 [18c]
microsomal CLint [2]: 54 µL/min/mg
inhibition of NL4-3 infection of TZM-bl cells [3]: no inhibition; also recorded: no activity
RFC (resistance fold change) [4]: 7.89
inhibition of NL4-3 Env-mediated cell–cell fusion [5]: no activity; also recorded: did not inhibit

C=C(C)[C@@H]1CC[C@]2(C(=O)NCCCCCCCNC(C)=O)CC[C@]3(C)[C@H](CC[C@@H]4[C@@]5(C)CC[C@H](O)C(C)(C)[C@@H]5CC[C@]43C)[C@@H]12 [A43D]
inhibition of NL4-3 infection of TZM-bl cells [3]: totally inhibited
inhibition of NL4-3 Env-mediated cell–cell fusion [5]: strongly inhibited

C=C(C)[C@@H]1CC[C@]2(C(=O)O)CC[C@]3(C)[C@H](CC[C@@H]4[C@@]5(C)CC[C@H](OC(=O)CC(C)(C)C(=O)O)C(C)(C)[C@@H]5CC[C@]43C)[C@@H]12 [compound 2, 3-O-(3′,3′-dimethylsuccinyl)-betulinic acid]
inhibition of NL4-3 infection of TZM-bl cells [3]: no inhibition
inhibition of NL4-3 Env-mediated cell–cell fusion [5]: no activity
elimination half-life t1/2 [6]: 56.3 to 69.5 h

O=C(O)/C=C/c1ccc(O)c(O)c1 [compound 5, 3,4-dihydroxycinnamic acid]
IC50 NL4-3 [1]: no selectivity

O=C(/C=C/c1cc(O)c(O)cc1[N+](=O)[O-])O[C@H](Cc1cc(O)c(O)cc1[N+](=O)[O-])C(=O)O [compound 6, 6′,6″-Dinitrorosmarinic acid]
anti-HIV activity in MT-4 cells [7]: moderate anti-HIV activity
HIV-1 integrase inhibition [8]: potent HIV-1 integrase inhibition

O=C(/C=C/c1ccc(O)c2c1[C@H](C(=O)O)[C@@H](c1ccc(O)c(O)c1)O2)O[C@H](Cc1ccc(O)c(O)c1)C(=O)O [compound 7, (+)-Lithospermic acid]
HIV-1 integrase inhibitory activity [8]: submicromolar range

O=C(/C=C/c1ccc(O)c(O)c1)O[C@@H]1C[C@](O)(C(=O)O)C[C@@H](OC(=O)/C=C/c2ccc(O)c(O)c2)[C@H]1O [compound 8, 3,5-Dicaffeoylquinic acid]
HIV-1 integrase inhibitory activity [8]: active against HIV-1 integrase

C=C(C)[C@@H]1CC[C@]2(C(=O)N3CCNCC3)CC[C@]3(C)[C@H](CC[C@@H]4[C@@]5(C)CC[C@H](OC(=O)CC(C)(C)C(=O)O)C(C)(C)[C@@H]5CC[C@]43C)[C@@H]12 [compound 20]
fold less active than 2 against NL4-3 ([1]; compared with 2): 8 fold

(+)-erythro-7′-methylcarolignan E [11a]
IC50 [7]: 6.3 µM

(−)-erythro-7′-methylcarolignan E [11b]
IC50 [7]: 5.3 µM

L-Chicoric acid [compound 9]
IC50 [9]: 4.2 µM
